Values after ≈ are worked out from the molar mass of the structure shown.

Series [1] can be described thus: Absorption edge of visible light photoinitiators. The class given is physicochemical. The text has this: Table 5 provides information about the photoinitiators used in this example.
A short description of series [2]: Solubility of photoinitiator in lens formulation. Format: physicochemical. How it is done: Four lens formulations without HEVL-absorbing benzotriazole-containing vinylic monomers are prepared to have the following compositions shown in Table 6. TTMB-Sn is not soluble in the formulation at room temperature but is soluble at 40° C. So, the photo-rheology experiment is conducted at 40° C. for this photoinitiator instead of the typical 25° C. (for other three photoinitiators).

Series [3] can be described thus: Solubility of HEVL-absorbing vinylic monomers in 1-propanol. Format: physicochemical. The source says:
It is also reported that there are correlations between lower melting points and compound solubility (Bathori, N. B. Acta Cryst., 2014, A70, C990). Changing the R group from —Cl to —CF3 should both shift the absorbance due to a greater electron withdrawing capability, and increase the solubility by reducing the ability of the compound to crystalize due to the bulky —CF3 group. […] UV23 would seem to be a good candidate because the —CF3 group further red shifts the absorbance and the solubility is much improved.

For series [4] the following is noted: empirical substituent parameter of R group on benzotriazole ring; cited from earlier work.
Series [5] in a line: UV/visible absorption of dilute monomer solutions (absorption peak). The class given is physicochemical. The settings on record: HEVL absorption peak; dilute solution in PrOH.

For the compound `C[CH2][Ge]([CH2]C)([C](=O)c1ccc(OC)cc1)[C](=O)c1ccc(OC)cc1` [BMBDE-Ge, Bis(4-methoxybenzoyl)diethylgermanium], the “Abs. edge (nm)” value in series [1] is 470 nm.

`C[CH2][Ge]([CH2]C)([C](=O)c1ccccc1)[C](=O)c1ccccc1` [DBDE-Ge, dibenzoyldiethylgermanium]: the “Abs. edge (nm)” value in series [1] came out at 480 nm.

On to `CCc1ccccc1[C](=O)[Ge]([C](=O)c1ccccc1CC)([C](=O)c1ccccc1CC)[C](=O)c1ccccc1CC` [TEB-Ge, tetrakis(2-ethylbenzoyl)-germanium], for which the “Abs. edge (nm)” value in series [1] is 490 nm.

Turning to `Cc1cc(C)c([C](=O)[Sn]([C](=O)c2c(C)cc(C)cc2C)([C](=O)c2c(C)cc(C)cc2C)[C](=O)c2c(C)cc(C)cc2C)c(C)c1` [TTMB-Sn, tetrakis(2,4,6-trimethylbenzoyl)stannane], in series [1], the “Abs. edge (nm)” value amounted to 510 nm. For the same compound, the “solubility in the formulation” value in series [2] (40° C.) is on record as “soluble”; in series [2] (room temperature), “not soluble”.

With `C=CC(=O)OCCCOc1cc(-n2nc3ccc(C(F)(F)F)cc3n2)c(O)c(C(C)(C)C)c1` [UV23, 2-[2′-Hydroxy-3′-tert-butyl-5′-(3′-acryloyloxypropoxy)phenyl]-5-trifluoromethyl-2H-benzotriazole], the “Solubility in PrOH” value in series [3] is over 3300 µg/mL. The σpara in series [4] is 0.54. Also, the “Absorption Peak (nm)” value in series [5] is listed as 418 nm.

Consider `C=C(C)C(=O)OCCCOc1cc(-n2nc3ccc(Cl)cc3n2)c(O)c(C(C)(C)C)c1` [UV28, 2-{2′-Hydroxy-3′-tert-butyl-5′-[3′-methacryloyloxypropoxy]phenyl}-5-chloro-2H-benzotriazole], for which the “Solubility in PrOH” value in series [3] was 1500 µg/mL (≈ 3.38 mM). Further, the σpara in series [4] was 0.23. Besides, in series [5], the “Absorption Peak (nm)” value was 416 nm.

(Values after patent US20240392055A1, “UV/HEVL-FILTERING SILICONE HYDROGEL CONTACT LENSES” (Alcon Inc., priority 2023, published 2024).)
